Assay results published in patent EP1459757A1, “Immunomodulating polymers” (THE BRIGHAM AND WOMEN'S HOSPITAL, INC., priority 1999, dated 2004).

Assays:
[1] = system: B. fragilis NCTC 9343; assay: Rat model of intraabdominal sepsis, abscess formation after B. fragilis challenge; type: in vivo
Procedure: The rat model of intraabdominal sepsis used in this study has been described previously. […] Briefly, male Wistar or Lewis rats (Charles River Laboratories, Wilmington, MA) weighing between 180 and 200 g were housed separately and received chow (Ralston Purina, St. Louis, MO) and water ad libitum. Animals were anesthetized with a single intraperitoneal injection of 0.15 ml of Nembutal (50 mg/ml; Abbott Laboratories, North Chicago, IL), and their abdomens were shaved and swabbed with a tincture of iodine. An anterior midline incision (0.5-1.0 cm) was made through the abdominal wall and peritoneum, and a gelatin capsule containing 0.5 ml of inoculum was inserted into the pelvis. The inoculum contained either B. fragilis NCTC 9343 (10^8 cfu/animal), S. aureus PS 80 (10^7 cfu/animal), or purified test polysaccharide, mixed 1:1 with an adjuvant solution containing sterile rat cecal contents and 10% barium sulfate (w/v) as previously described. […] The incisions were closed with interrupted 3.0 silk sutures, and the animals were returned to the cages.
Six days later animals were necropsied in a blinded fashion and examined for the formation of one or more intraabdominal abscesses by an observer blinded to the experimental groups.
This example addresses whether zwitterionic (K-D)n peptides could protect animals against abscess formation in vivo, using the abdominal sepsis model in Example 1.
The effect of the peptide repeating unit size on protection was examined. Animals were treated according to the regimen described above with a 50 µg/dose of each repeating unit size (Table 2).

[2] = system: human T cells; assay: T cell proliferation assay (3H-thymidine uptake); type: cell-based; conditions: 20 µg/ml; 6 days post-incubation (Figure 6)
Procedure: T cell proliferation assays were performed on cells obtained from human leukopacs (discarded white cells from anonymous platelet donors). Mononuclear cells were separated by ficoll-hypaque sedimentation to eliminate red cells and polymorphonuclear leukocytes. The mononuclear layer, which consisted of T cells, B cells, and mononuclear cells, was depleted of B cells and monocytes by passage over nylon wool column. A portion of these cells was saved prior to placement on nylon wool and were used as autologous feeder cells following irradiation with 6.4 kRads with a cesium source for 4.8 min. Nylon passed cells, which were greater than 98% CD3 positive (as determined by FACS analysis) were used as responder cells or further depleted with antibodies to CD4 (OKT4) or CD8 (OKT8) followed by negative selection with magnetic beads. Finberg, RW et al. J Immunol 149:2055 (1992); Haregewoin, A et al. Nature 340:309 (1989). […] Cells were washed extensively, harvested, and the amount of radioactive uptake counted by liquid scintillation. […] Data were expressed as the average of triplicate wells ± the standard error of cpm represented. […]
Following the T cell proliferation assay of Example 2, K-D peptides (20 µg/ml) of varying size were assessed for their ability to stimulate T cell activation 6 days post-incubation. […]

[3] = Table 1 Experiment A, 50 µg subcutaneous at -24, 0, +24 h, B. fragilis 1 x 10^8 cfu/rat, six days later

## poly-L-lysine
[1]; 50 µg/dose subcutaneous, B. fragilis challenge
  protection against abscess formation compared with saline-treated animals: did not protect against abscess formation
[1]; [3]
  Abscess formation (%): 80%
  No. animals with abscess/total: 8/10
[2]
  T cell activation by K-D peptides of varying size: did not stimulate T cell proliferation
